Measured values taken from patent publication US12383556B2, “Methods of treating Sjögren's syndrome using a Bruton's tyrosine kinase inhibitor” (NOVARTIS AG, priority 2019, dated 2025).

Columns and labels:
BTK = target: T1, BTK (Homo sapiens, UniProt Q06187); assay: BTK occupancy in human whole blood (free and total BTK ELISA, MSD); type: in vivo
T1 construct: from tissue; host or cells: human whole blood (peripheral blood of dosed volunteers)
Procedure: Pharmacodynamics (PD) was characterized by assessing target occupancy and distal pathway inhibition. Measurements of BTK occupancy in human whole blood (derived as ratio of free and total BTK), served as direct marker of therapeutic target engagement.
Compound of formula (I) is an irreversible inhibitor of BTK, the extent and duration of BTK occupancy were determined.
The relationship between dose and pharmacodynamics was characterized by measurements of BTK occupancy in human blood (derived as ratio of free and total BTK), a direct marker of therapeutic target engagement. BTK occupancy was determined for single ascending doses ranging 0.5 to 400 mg, for q.d. multiple ascending doses ranging from of 10 mg and 400 mg, and for b.i.d. multiple ascending doses of 100 mg and 200 mg.

[1] = Safety and tolerability in healthy volunteers (first-in-human study); type: in vivo; settings: for overall safety assessment: dosing up to 600 mg (200 mg twice daily)
Procedure: Standard safety monitoring was used throughout all study parts. A dedicated assessment of potential skin bruising events were included. All vital signs, physical examination and subject history, ECGs, adverse events, and laboratory safety parameters (blood chemistry, hematology and urinalysis) up to 96 hours post last dose as well as PK data from the previous dose group (if available) up to 48 hours post last dose were to be reviewed in a blinded fashion for each cohort before dose escalation. Summary safety reports of reported adverse events, clinical safety laboratory parameters, QTc and heart rate were provided after completion of each dose level.
For the analysis of adverse effects, the Placebo subjects from all SAD and MAD cohorts (2 per cohort) and separated by the SAD and MAD parts were pooled into one Placebo group (n=20 for SAD and n=16 for MAD) to be compared with each single compound (I) dose group (n=6 each) and the total compound (I) group (n=60 for SAD and n=48 for MAD). There were no apparent major differences in the demographic data between placebo and the active groups both for the SAD and MAD populations.

[2] = after single dose, peripheral blood

T1 sequence (Q06187 whole entry): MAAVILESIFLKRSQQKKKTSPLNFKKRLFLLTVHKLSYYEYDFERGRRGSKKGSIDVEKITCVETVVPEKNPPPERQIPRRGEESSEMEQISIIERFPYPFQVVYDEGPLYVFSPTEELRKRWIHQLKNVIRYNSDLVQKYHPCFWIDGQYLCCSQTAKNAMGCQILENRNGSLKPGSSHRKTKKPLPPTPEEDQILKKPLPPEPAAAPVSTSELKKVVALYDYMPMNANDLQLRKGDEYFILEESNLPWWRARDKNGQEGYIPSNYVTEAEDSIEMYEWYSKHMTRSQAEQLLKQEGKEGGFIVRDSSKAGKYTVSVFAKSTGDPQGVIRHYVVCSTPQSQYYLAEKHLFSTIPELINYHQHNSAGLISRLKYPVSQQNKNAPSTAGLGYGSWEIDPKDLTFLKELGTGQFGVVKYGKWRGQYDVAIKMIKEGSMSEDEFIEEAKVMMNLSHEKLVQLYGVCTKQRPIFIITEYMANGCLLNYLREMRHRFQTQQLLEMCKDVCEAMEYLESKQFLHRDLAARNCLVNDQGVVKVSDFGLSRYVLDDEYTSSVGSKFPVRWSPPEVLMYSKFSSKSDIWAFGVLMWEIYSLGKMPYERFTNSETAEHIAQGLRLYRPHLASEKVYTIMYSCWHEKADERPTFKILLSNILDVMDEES

BTK occupancy in blood (BTK; 10 mg q.d.): nearly complete
through BTK occupancy in blood (BTK; 10 mg q.d., pre-dose at day 12): > 96%
median BTK turnover T1/2 (BTK; [2]): about 48 hours
time to refresh BTK protein pool to pre-dose levels (BTK; [2]): about 10 days
duration of BTK occupancy in blood (BTK; in vivo): > 24 h
time of peak target occupancy post dose (BTK; peripheral blood): 0.5 h
BTK occupancy at 24 h (BTK; single doses of 15 mg and above): above 80%
peak target (BTK) occupancy (BTK; single doses of 15 mg and above, nearly all subjects): ~100%
duration of sustained BTK occupancy (BTK; single doses of 30 mg and higher): > 24 h
BTK occupancy (near-complete) (BTK; single doses of 30 mg and higher, all subjects): > 90%
Structure (SMILES): C=CC(=O)N(C)CCOc1c(N)ncnc1-c1cc(F)cc(NC(=O)c2ccc(C3CC3)cc2F)c1C [Compound of Formula (I), N-(3-(6-Amino-5-(2-(N-methylacrylamido)ethoxy)pyrimidin-4-yl)-5-fluoro-2-methylphenyl)-4-cyclopropyl-2-fluorobenzamide]
serious or severe adverse events related to intake ([1]; 0.5 mg to 600 mg, healthy volunteers): no serious or severe adverse event
tolerability ([1]; 0.5 mg to 600 mg, single dose or up to 18 days once or twice daily): well tolerated
overall safety assessment [1]: proven to be safe
overall safety assessment ([1]; listed as compound (I)): does not reveal significant safety concerns
nature of observed adverse events ([1]; healthy volunteers): generally mild in nature
